Results published in ChEMBL document CHEMBL5518228, “DNA Interaction and Cleavage Modes of Anthraquinone-Fused Enediynes: A Study on Tiancimycins, Yangpumicins, and Their Semisynthetic Analogues” (J Med Chem, 2024).
Calls of active or inactive are those of the source. No cut-off for these calls is given here.

Columns and labels:
Calf thymus DNA [1] = assay: Binding affinity to calf thymus DNA assessed as change in gibbs free energy in presence of ethidium bromide by competitive binding based fluorescence spectroscopic analysis; type: nucleic-acid assay; details: Bos taurus
Calf thymus DNA [2] = assay: Binding affinity to calf thymus DNA assessed as DNA insertion by measuring change in gibbs free energy by fluorescence spectroscopic analysis; type: nucleic-acid assay; details: Bos taurus
Calf thymus DNA [3] = assay: Binding affinity to calf thymus DNA assessed as DNA insertion by measuring change in gibbs free energy in presence of triggered form of compound by fluorescence spectroscopic analysis; type: nucleic-acid assay; details: Bos taurus
Jurkat = assay: Cytotoxicity against human Jurkat cells incubated for 72 hrs by CCK-8 assay; type: functional, cell-based
A549 = assay: Cytotoxicity against human A549 cells incubated for 72 hrs by CCK-8 assay; type: functional, cell-based; details: A549, 72 h
Caco-2 = assay: Cytotoxicity against human Caco-2 cells incubated for 72 hrs by CCK-8 assay; type: functional, cell-based; details: Caco-2, 72 h
[4] = Cytotoxicity against human KPL-4 cells incubated for 72 hrs by CCK-8 assay; type: functional, cell-based; details: KPL4, 72 h
[5] = Cytotoxicity against human NCM460 cells incubated for 72 hrs by CCK-8 assay; type: toxicity, cell-based
[6] = Cytotoxicity against human HUVEC cells incubated for 72 hrs by CCK-8 assay; type: toxicity, cell-based
Supercoiled DNA [7] = assay: Induction of supercoiled pBR322 DNA (unknown origin) cleavage assessed as relaxation of supercoiled plasmid incubated for 1 hr in presence of DTT by SYBR I Green staining based agarose gel electrophoresis analysis; type: nucleic-acid assay
Supercoiled DNA [8] = assay: Induction of supercoiled pBR322 DNA (unknown origin) cleavage at 0.5 uM incubated for 1 hr under pH 7.5 condition by agarose gel electrophoresis analysis; type: nucleic-acid assay
Supercoiled DNA [9] = assay: Induction of supercoiled pBR322 DNA (unknown origin) cleavage at 0.5 uM incubated for 1 hr in presence of pyridine under pH 7.4 condition by agarose gel electrophoresis analysis; type: nucleic-acid assay
Supercoiled DNA [10] = assay: Induction of supercoiled pBR322 DNA (unknown origin) cleavage at 0.5 uM incubated for 1 hr in presence of catalase under pH 7.4 condition by agarose gel electrophoresis analysis; type: nucleic-acid assay
Supercoiled DNA [11] = assay: Induction of supercoiled pBR322 DNA (unknown origin) cleavage at 0.5 uM incubated for 1 hr in presence of methanol under pH 7.4 condition by agarose gel electrophoresis analysis; type: nucleic-acid assay
Supercoiled DNA [12] = assay: Induction of supercoiled pBR322 DNA (unknown origin) cleavage at 0.5 uM incubated for 1 hr in presence of ethanol under pH 7.4 condition by agarose gel electrophoresis analysis; type: nucleic-acid assay
Supercoiled DNA [13] = assay: Induction of supercoiled pBR322 DNA (unknown origin) cleavage at 0.5 uM incubated for 1 hr in presence of mannitol under pH 7.4 condition by agarose gel electrophoresis analysis; type: nucleic-acid assay
DNA = assay: Induction of duplex DNA (unknown origin) cleavage assessed as DNA cleaved fragments at AT-rich region at 100 uM incubated for 6 hr in presence of DTT by agarose gel electrophoresis analysis; type: nucleic-acid assay

Row | SMILES | deltaG (Calf thymus DNA [1]) | deltaG (Calf thymus DNA [2]) | deltaG (Calf thymus DNA [3]) | IC50 (Jurkat) | IC50 (A549) | IC50 (Caco-2) | IC50 [4] | IC50 at 72 h [5] | IC50 at 72 h [6] | EC50 (Supercoiled DNA [7]) | Activity (Supercoiled DNA [8]) | Activity (Supercoiled DNA [9]) | Activity (Supercoiled DNA [10]) | Activity (Supercoiled DNA [11]) | Activity (Supercoiled DNA [12]) | Activity (Supercoiled DNA [13]) | Activity (DNA)
1 | COC1=C(C(=O)O)[C@H](C)[C@@]23O[C@]24c2cc(O)c5c(c2N[C@H]3C#C/C=C\C#CC14)C(=O)c1c(O)ccc(O)c1C5=O | 2.62 kcal/mol | -18.1 kcal/mol | -13.6 kcal/mol |  |  |  |  |  |  |  |  |  |  |  |  |  | 
2 | COC(=O)[C@@H](O)[C@@](C)(O)[C@@]12O[C@]13c1cc(O)c4c(c1N[C@H]2C#C/C=C\C#C[C@H]3O)C(=O)c1c(ccc(OC)c1O)C4=O | -8.56 kcal/mol |  |  | 0.4 nM | 0.1 nM | 0.4 nM | 0.04 nM | 0.4 nM | 0.4 nM | 248 nM | Active | Active | Active | Active | Active | Active | Active
3 | O=C1c2cccc(O)c2C(=O)c2c3c(cc(O)c21)[C@@]12O[C@@]1([C@H](O)CO)[C@H](C#C/C=C\C#C[C@H]2O)N3 | -8.41 kcal/mol |  |  | 0.02 nM | 0.2 nM | 13.5 nM | 0.01 nM | 0.2 nM | 0.8 nM | 261 nM |  |  |  |  |  |  | Active
4 | COc1cc(Br)c2c(c1O)C(=O)c1c3c(cc(O)c1C2=O)[C@@]12O[C@@]1([C@@H](C)O)[C@H](C#C/C=C\C#C[C@H]2O)N3 | -8.13 kcal/mol |  |  | 2.6 nM | 11 nM | 154 nM | 0.31 nM | 3.3 nM | 22.7 nM | 79 nM |  |  |  |  |  |  | Active
5 | COC(=O)[C@@H](O)[C@@](C)(O)[C@@]12O[C@]13c1cc(O)c4c(c1N[C@H]2C#C/C=C\C#C[C@H]3O)C(=O)c1cc(OC)ccc1C4=O | -7.99 kcal/mol |  |  | 0.1 nM | 2.8 nM | 6.8 nM | 0.5 nM | 2.8 nM | 15.5 nM | 583 nM |  |  |  |  |  |  | Active
6 | COC(=O)[C@@H](O)[C@@](C)(O)[C@@]12O[C@]13c1cc(O)c4c(c1N[C@H]2C#C/C=C\C#C[C@H]3O)C(=O)c1c(O)c(OC)cc(-n2[nH]c(=O)n(-c3ccccc3)c2=O)c1C4=O |  |  |  | 44.7 nM | 499 nM | 613 nM | 23.7 nM | 227 nM | 946 nM | 33.2 nM |  |  |  |  |  |  | inactive
7 | COc1cccc2c1C(=O)c1c(O)c3c(c(O)c1C2=O)C[C@@](O)(C(=O)CO)C[C@@H]3O[C@H]1C[C@H](N)[C@H](O)[C@H](C)O1 | -9.68 kcal/mol |  |  |  |  |  |  |  |  |  |  |  |  |  |  |  | 
